Measured values as given in PubChem BioAssay (NCI).
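Test compounds were applied to cells in 96-well plates for 48 hours at 5 doses. TGI: concentration producing complete growth inhibition.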

How the values were obtained:
Experiment in all cases: NCI tumour cell line growth inhibition, 48 h
DMS 114 small cell lung = system: DMS 114 small cell lung
HOP-18 NSCLC = system: HOP-18 NSCLC
LXFL 529 NSCLC = system: LXFL 529 NSCLC
M19-MEL melanoma = system: M19-MEL melanoma
RXF-631 renal = system: RXF-631 renal
MDA-N = system: MDA-N
P388 leukemia = system: P388 leukemia
P388/ADR leukemia = system: P388/ADR leukemia
SN12K1 renal = system: SN12K1 renal

Structure (SMILES)	TGI (DMS 114 small cell lung) [µM]	TGI (HOP-18 NSCLC) [µM]	TGI (M19-MEL melanoma) [µM]	TGI (MDA-N) [µM]	other results
CCC(C)C(N)C(=O)NC(CC(N)=O)C(=O)NC(CC(C)C)C(=O)NC(CCCCN)C(=O)NC(C)C(=O)NC(CC(C)C)C(=O)NC(C)C(=O)NC(C)C(=O)NC(CC(C)C)C(=O)NC(C)C(=O)NC(CCCCN)C(=O)NC(CCCCN)C(=O)NC(C(=O)NC(CC(C)C)C(N)=O)C(C)CC (centres undefined)	28.1	13.5	25.9		TGI (LXFL 529 NSCLC): 28.7 µM; TGI (RXF-631 renal): 19.5 µM
O=c1c2ccccc2[nH]n1Cc1ccccc1				> 100	
Cc1[nH]c(=O)[nH]c(=O)c1/C=C/C(=O)O (tested in a mixture with another compound)	> 625	> 625	> 625		TGI (P388 leukemia): > 625 µM; TGI (P388/ADR leukemia): > 625 µM; TGI (SN12K1 renal): > 625 µM
OC1c2ccccc2CCC1CN1CCN(CCOC(c2ccc(F)cc2)c2ccc(F)cc2)CC1 (centres undefined)				36.3	
CSCC[C@@H]1C(=O)N(C)[C@H](C(C)(C)C)N1C(=O)c1ccccc1	> 100	> 100	> 100		TGI (P388 leukemia): > 100 µM; TGI (SN12K1 renal): > 100 µM
CSc1nc(C)cc(Nc2ccc(O)c(CN3CCOCC3)c2)n1				> 100	
N#CC(N=Nc1ccccc1C(=O)O)C(N)=O (centres undefined)				> 100	
COc1cc2c3cc1Oc1c(O)c(OC)cc4c1C(Cc1ccc(O)c(c1)Oc1ccc(cc1)CC3N(C)CC2)N(C)CC4 (centres undefined)	44.8	45	43.8		TGI (LXFL 529 NSCLC): 17.1 µM
CC(CC(N)C(=O)O)C(=O)O (centres undefined)				> 100	
CN(C)c1ccc(/C=C/c2ccc(S(N)(=O)=O)cc2)cc1				> 100	
CC1(C)[C@@H]2CC[C@]1(C)[C@H](OC(=O)/C=C/c1ccccc1)C2				92.6	
COc1nc2cccc(C(O)c3ccccc3)c2nc1-c1ccccc1 (centres undefined)				5.17	
O=C1C=CC2OC(c3ccccc3)C(O)C2O1 (centres undefined)	14.7	1.81	30.8		TGI (P388 leukemia): 6.53 µM; TGI (P388/ADR leukemia): 7.63 µM; TGI (SN12K1 renal): 14.9 µM
CC(=O)c1[nH]c(NC(C)C)c(C(=S)Nc2ccccc2)c1N				61.3	
Cc1c[n+]2c3ccccc3c3ccccc3c2s1	16.1	> 100	18.3		TGI (LXFL 529 NSCLC): 21.6 µM
C=CCN1/C(=C(\C#N)c2nc3ccccc3[nH]2)Sc2c1nc[nH]c2=O	> 100		> 100		TGI (LXFL 529 NSCLC): > 100 µM
OCC1COc2cc(Cl)c(Cl)cc2O1 (centres undefined)				> 10	
COc1cc(C2c3cc4c(cc3[C@@H](Nc3cccc(CO)c3)C3COC(=O)[C@H]23)OCO4)cc(OC)c1O (some centres undefined)	3.82	17.4	32.6		TGI (P388 leukemia): 0.369 µM; TGI (P388/ADR leukemia): 1.86 µM; TGI (SN12K1 renal): 5.53 µM
